Results as given in ChEMBL document CHEMBL1201862, “PubChem BioAssay data set” (2004).
Active and inactive are the calls of the source.

What was measured:
[1] = target: Induced myeloid leukemia cell differentiation protein Mcl-1 (Homo sapiens, UniProt Q07820); format: functional
[2] = target: T1, Zinc finger protein mex-5 (Caenorhabditis elegans, UniProt Q9XUB2); assay: MEX-5/TCR-2 RNA interaction inhibitors, dose response, biochemical, C. elegans, fluorescence polarization (AID 1960)
T1 sequence (Q9XUB2 whole entry): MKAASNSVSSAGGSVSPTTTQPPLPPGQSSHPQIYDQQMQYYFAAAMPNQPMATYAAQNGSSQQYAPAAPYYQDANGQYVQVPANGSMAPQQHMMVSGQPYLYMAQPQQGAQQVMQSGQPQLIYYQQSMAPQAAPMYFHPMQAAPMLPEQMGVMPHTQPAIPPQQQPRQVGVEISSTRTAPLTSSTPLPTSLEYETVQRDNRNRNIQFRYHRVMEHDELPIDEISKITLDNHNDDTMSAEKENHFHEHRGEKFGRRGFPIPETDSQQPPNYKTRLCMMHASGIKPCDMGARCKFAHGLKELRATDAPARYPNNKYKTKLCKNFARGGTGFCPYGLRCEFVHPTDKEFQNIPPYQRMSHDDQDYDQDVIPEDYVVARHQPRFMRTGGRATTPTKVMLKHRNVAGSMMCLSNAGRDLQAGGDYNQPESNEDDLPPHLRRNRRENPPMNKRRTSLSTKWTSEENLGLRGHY

[3] = target: T2, RNA-binding protein pos-1 (Caenorhabditis elegans, UniProt G5EF15); assay: inhibitors of POS-1/mex-3 RNA binding, dose response, biochemical, fluorescence polarization (AID 1964);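 further: purified POS-1 fused to maltose binding protein made in E. coli; potency of compounds blocking POS-1 binding to fluorescent RNA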
T2 sequence (G5EF15 whole entry): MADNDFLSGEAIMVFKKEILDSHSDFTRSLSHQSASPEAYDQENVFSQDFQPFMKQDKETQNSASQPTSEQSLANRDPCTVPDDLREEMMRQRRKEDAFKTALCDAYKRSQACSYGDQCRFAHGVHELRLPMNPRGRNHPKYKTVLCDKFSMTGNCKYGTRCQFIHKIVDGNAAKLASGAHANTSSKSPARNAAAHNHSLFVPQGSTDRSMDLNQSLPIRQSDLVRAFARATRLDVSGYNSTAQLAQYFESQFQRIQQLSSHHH

[4] = inhibitors of HIV Env-driven cell fusion, dose response, cherry-pick (AID 652057); format: functional, cell-based
[5] = inhibitors of clade B AD8 Env fusion, dose response, cell-based, cherry-pick (AID 652062); format: functional;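 further: luciferase signal from cell-cell fusion driven by HIV-1 clade B AD8 Env; potency is for inhibitors of fusion seen as a drop in luminescence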
[6] = off-target signal loss in HeLa-CEM21 co-culture – HeLa F-luc CTL cells, cherry-picked, counter-screen for HIV-1 Env fusion inhibitor project, dose response (AID 652040); format: functional, cell-based;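 further: potency for signal decrease marking cytotoxic or nonspecific inhibition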
[7] = ZM109 Env clade C HIV-1 fusion inhibitors, dose response, HeLa effector, CEM target cells, luciferase, cherry-pick (AID 652058); format: functional, cell-based
[8] = intracellular Trypanosoma cruzi inhibitors in host cells – cell-based, plate reader, cherry-pick samples, set 3, dose response (AID 651818); format: functional;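 further: compounds incubated with infected cells for about four days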
[9] = microbe, parasite or virus in culture; format: functional; conditions: Mycobacterium tuberculosis
H9c2 = assay: cells; format: functional, cell-based; conditions: Rattus norvegicus, H9c2, Myocardium;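 further: confirmatory concentration-response retest of ultra-high-throughput screening hits for modulation of myocardial damage; cell death induced by hydrogen peroxide oxidative stress; compound pretreatment for 60 min then peroxide exposure for 2 h; potency is for protecting the cells against peroxide damage rather than for killing them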
[10] = target: Heat shock protein HSP 90-alpha (Homo sapiens, UniProt P07900); format: functional, organism-based
cells = format: functional
Genome polyprotein = Genome polyprotein (dengue virus type 2, UniProt P29990); assay: Dengue-2 NS5 methyltransferase inhibitors, primary screen, biochemical, confirmation dose response (AID 588689); format: functional
Genome polyprotein, sequence (P29990 2492-3391 limits assumed): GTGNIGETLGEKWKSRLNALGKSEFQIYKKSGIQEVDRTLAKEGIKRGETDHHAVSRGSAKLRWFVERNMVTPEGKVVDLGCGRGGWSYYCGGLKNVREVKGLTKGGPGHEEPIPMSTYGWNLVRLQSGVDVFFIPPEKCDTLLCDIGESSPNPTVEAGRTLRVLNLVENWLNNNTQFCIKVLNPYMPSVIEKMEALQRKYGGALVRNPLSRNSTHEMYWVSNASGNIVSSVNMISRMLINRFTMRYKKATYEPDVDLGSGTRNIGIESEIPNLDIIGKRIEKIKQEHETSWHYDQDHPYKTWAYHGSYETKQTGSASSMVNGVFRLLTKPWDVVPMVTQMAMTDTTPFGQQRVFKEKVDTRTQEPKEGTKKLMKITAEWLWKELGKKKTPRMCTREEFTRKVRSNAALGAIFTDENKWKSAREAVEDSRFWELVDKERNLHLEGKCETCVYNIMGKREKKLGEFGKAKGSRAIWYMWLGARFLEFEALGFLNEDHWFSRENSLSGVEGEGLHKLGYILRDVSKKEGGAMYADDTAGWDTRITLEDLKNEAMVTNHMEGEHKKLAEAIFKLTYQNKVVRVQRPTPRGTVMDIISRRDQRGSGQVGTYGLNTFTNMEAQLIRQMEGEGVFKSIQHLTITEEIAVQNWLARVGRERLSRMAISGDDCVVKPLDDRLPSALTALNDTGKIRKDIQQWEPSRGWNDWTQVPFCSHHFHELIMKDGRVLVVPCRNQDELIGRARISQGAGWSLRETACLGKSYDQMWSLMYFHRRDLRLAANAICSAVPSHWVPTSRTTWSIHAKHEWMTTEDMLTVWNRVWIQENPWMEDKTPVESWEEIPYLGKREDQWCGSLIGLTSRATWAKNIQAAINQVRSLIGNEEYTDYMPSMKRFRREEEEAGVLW

Protein RecA = target: T3, Protein RecA (Mycobacterium tuberculosis, UniProt P9WHJ3); assay: Fluorescence Cell-Free Homogeneous Dose Retest to Identify Inhibitors of RecA-Intein Splicing Activity. [Related pubchem assays (depositor defined):AID2097, AID2223, AID489010, AID492950]; format: functional
T3 sequence (P9WHJ3 whole entry): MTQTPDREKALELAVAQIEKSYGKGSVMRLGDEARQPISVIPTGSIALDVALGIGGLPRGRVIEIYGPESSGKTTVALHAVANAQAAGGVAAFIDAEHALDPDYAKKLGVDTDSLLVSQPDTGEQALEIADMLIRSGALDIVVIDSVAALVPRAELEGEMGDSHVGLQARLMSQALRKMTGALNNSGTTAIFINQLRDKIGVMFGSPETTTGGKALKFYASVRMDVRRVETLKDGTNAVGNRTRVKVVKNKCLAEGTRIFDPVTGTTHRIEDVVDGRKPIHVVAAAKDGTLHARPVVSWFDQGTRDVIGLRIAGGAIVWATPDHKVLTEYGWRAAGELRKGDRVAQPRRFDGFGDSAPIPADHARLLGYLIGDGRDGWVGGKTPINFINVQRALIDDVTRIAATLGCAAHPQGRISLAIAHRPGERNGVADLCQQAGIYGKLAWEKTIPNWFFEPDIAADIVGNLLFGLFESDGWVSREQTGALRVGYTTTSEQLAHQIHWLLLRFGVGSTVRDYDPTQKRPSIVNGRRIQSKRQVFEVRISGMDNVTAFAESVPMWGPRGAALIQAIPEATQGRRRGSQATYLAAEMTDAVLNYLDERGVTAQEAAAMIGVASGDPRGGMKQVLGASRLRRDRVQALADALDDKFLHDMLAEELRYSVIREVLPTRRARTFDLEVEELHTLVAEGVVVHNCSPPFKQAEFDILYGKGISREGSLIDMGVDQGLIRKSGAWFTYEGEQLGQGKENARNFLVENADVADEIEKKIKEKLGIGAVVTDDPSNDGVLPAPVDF

[11] = target: T4, Replicative DNA helicase DnaB (Mycobacterium tuberculosis, UniProt P9WMR3); assay: DnaB intein splicing inhibitors, dose response, biochemical, cell-free fluorescence (AID 449749); format: functional
T4 sequence (P9WMR3 whole entry): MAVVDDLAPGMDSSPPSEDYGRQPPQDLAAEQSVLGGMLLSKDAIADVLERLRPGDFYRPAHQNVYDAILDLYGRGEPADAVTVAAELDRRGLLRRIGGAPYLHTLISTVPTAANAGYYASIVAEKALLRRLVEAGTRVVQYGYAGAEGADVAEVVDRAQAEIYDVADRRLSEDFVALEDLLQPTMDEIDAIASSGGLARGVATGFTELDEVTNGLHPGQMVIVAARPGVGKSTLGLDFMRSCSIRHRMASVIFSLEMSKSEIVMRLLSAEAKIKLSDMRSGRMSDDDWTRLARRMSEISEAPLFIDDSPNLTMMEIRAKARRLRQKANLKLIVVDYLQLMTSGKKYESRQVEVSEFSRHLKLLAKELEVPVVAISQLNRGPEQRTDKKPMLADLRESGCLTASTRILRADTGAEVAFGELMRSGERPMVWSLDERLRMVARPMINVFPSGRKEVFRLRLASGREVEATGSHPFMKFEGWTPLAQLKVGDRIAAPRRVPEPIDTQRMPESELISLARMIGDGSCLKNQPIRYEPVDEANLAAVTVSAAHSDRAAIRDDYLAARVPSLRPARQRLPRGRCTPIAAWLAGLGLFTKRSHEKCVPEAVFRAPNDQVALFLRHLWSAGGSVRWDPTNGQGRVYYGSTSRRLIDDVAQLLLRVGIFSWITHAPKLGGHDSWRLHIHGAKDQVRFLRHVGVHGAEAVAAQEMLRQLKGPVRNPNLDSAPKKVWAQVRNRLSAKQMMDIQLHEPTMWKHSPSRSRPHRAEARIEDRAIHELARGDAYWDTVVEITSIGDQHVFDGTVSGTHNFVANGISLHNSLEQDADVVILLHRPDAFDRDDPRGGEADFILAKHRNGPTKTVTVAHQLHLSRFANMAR

[12] = Luminescence Cell-Based Dose Retest to Confirm Inhibitors of Cancer Stem Cells. [Related pubchem assays (depositor defined):AID2717, AID2721]; format: functional; conditions: Homo sapiens

Induced myeloid leukemia cell differentiation protein Mcl-1, sequence (Q07820 whole entry): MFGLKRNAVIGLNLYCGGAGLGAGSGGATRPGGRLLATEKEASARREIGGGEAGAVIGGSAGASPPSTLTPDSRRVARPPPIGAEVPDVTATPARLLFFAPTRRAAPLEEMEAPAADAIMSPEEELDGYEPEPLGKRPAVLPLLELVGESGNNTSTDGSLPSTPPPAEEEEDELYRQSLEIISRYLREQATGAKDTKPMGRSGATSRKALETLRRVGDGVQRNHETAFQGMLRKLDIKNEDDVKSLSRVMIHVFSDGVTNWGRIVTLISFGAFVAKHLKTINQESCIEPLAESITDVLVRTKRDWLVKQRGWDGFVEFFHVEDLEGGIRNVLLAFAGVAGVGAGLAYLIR

C1=CC2c3ccccc3NC(c3ccncc3)C2C1 (stereo not given)
IC50 [1]: 2.42 µM (active) | EC50 [2]: 56.6 µM (inconclusive) | EC50 [3]: > 300 µM (not active)

CCN(C[C@H]1N[C@@](C)(C(=O)OC)[C@H]2C(=O)N(Cc3ccccc3)C(=O)[C@@H]12)C(=O)Nc1ccc(C)cc1
AC50 [4]: 0.83 µM (active) | AC50 [5]: 3.28 µM (active) | AC50 [6]: 1.61 µM (active) | AC50 [7]: 0.959 µM (active)

C[C@H](CO)N1C[C@H](C)[C@H](CN(C)Cc2ccc(C(=O)Nc3ccccc3N)cc2)Oc2ccc(NC(=O)Nc3ccc(C(F)(F)F)cc3)cc2CC1=O
AC50 [8]: 1.86 µM (active)

C[C@H]1CN([C@@H](C)CO)C(=O)c2cccc(NC(=O)Nc3ccc(C(F)(F)F)cc3)c2O[C@H]1CN(C)Cc1ccc(C(F)(F)F)cc1
AC50 [8]: 3.22 µM (active)

CC(C(c1ccc2c(c1)OCO2)c1c(N)n(C)c(=O)n(C)c1=O)[N+](=O)[O-] (stereo not given)
CC50 [9]: 36.3 µM (active)

CCOC(=O)c1c(CSc2ccccc2)oc2cc(Br)c(O)c(CN(C)C)c12
AC50 [4]: 0.907 µM (active) | AC50 [5]: 2.46 µM (active) | AC50 [6]: 1.38 µM (active) | AC50 [7]: 1.58 µM (active)

C[C@H]1CN([C@@H](C)CO)C(=O)Cc2cc(NC(=O)Nc3cccc4ccccc34)ccc2O[C@@H]1CN(C)Cc1ccc(Oc2ccccc2)cc1
AC50 [8]: 3.12 µM (active)

CCC(C)(C)NC(=O)C(c1ccccc1F)N(Cc1ccco1)C(=O)c1csnn1 (stereo not given)
AC50 [4]: 5 µM (active) | AC50 [5]: 36.2 µM (active) | AC50 [6]: 7.86 µM (active) | AC50 [7]: 22.6 µM (active)

Cc1noc(C)c1S(=O)(=O)N(C)C[C@H]1Oc2c(NC(=O)c3ccc(-c4nccs4)cc3)cccc2C(=O)N([C@@H](C)CO)C[C@H]1C
AC50 [8]: 5.82 µM (active)

COc1ccc(N/C=C/C(=O)c2sc(-c3ccccc3)nc2C)cc1
CC50 [9]: > 40 µM (active)

COc1cc(Br)cc(/C=N/NC(=O)c2ccccc2O)c1O
AC50 [8]: 1.49 µM (active)

C[C@H]1CN([C@@H](C)CO)C(=O)Cc2cc(NS(=O)(=O)c3ccc(Cl)cc3)ccc2O[C@H]1CN(C)Cc1ccccc1
AC50 [8]: 4.6 µM (active)

COCCCn1c(SCc2cccc(OC)c2)nc2cc(OC)c(OC)cc2c1=N
CC50 [9]: > 40 µM (active)

COc1ccccc1N1C(=O)C2ON(c3ccccc3)C(c3ccc(N(C)C)cc3)C2C1=O (stereo not given)
IC50 [1]: 9.03 µM (not active)

CN(C(=O)c1cccc(Nc2ccc(-c3ccc4c(c3)OCCO4)nn2)c1)C1CCCCC1
CC50 [9]: 28.4 µM (active)

COc1cc(-c2ccc3oc(-c4ccsc4)cc(=O)c3c2)cc(OC)c1OC
CC50 [9]: 14.3 µM (active) | IC50 (H9c2): > 79 µM (inactive)

C[C@H]1CN([C@@H](C)CO)C(=O)c2cccc(NC(=O)c3ccc(-c4nccs4)cc3)c2O[C@@H]1CN(C)Cc1ccc(C(=O)Nc2ccccc2N)cc1
AC50 [8]: 2.92 µM (active)

COc1ccc(S(=O)(=O)Nc2ccc3c(c2)CC(=O)N([C@H](C)CO)C[C@@H](C)[C@@H](CN(C)S(=O)(=O)c2ccc(OC)cc2)O3)cc1
AC50 [8]: 3.98 µM (active)

CCc1ccc([C@H]2[C@@H]3C(=O)C[C@@H]4C(=O)N(Cc5ccccc5)C(=O)[C@@H]4[C@@H]3CN2S(=O)(=O)c2ccc(C)cc2)cc1
AC50 [4]: 1.17 µM (active) | AC50 [5]: 11.3 µM (active) | AC50 [6]: 1.8 µM (active) | AC50 [7]: 1.48 µM (active)

N=C(Cc1ccc(Cl)c(Cl)c1)NOC(=O)c1ccc(Br)o1
AC50 [10]: 8.23 µM (active)

O=C1NC(=O)C(=Cc2ccc(Oc3ccc([N+](=O)[O-])cc3)cc2)C(=O)N1
IC50 (cells): 43 µM (active) | IC50 (Genome polyprotein): 34.5 µM (active) | EC50 (Protein RecA): > 380 µM (inactive) | AC50 [11]: 29.5 µM (active)

CCOC(=O)[C@H]1[C@H]2COc3ccccc3[C@@H]2N2C(=O)c3c(C)cc(C)cc3NC(=O)[C@@]12C
AC50 [4]: 0.712 µM (active) | AC50 [5]: 0.611 µM (active) | AC50 [6]: 1.04 µM (active) | AC50 [7]: 1.7 µM (active)

CC(C)(C)c1nn(-c2ccccc2)c2nc(O)c(C=O)cc12
AC50 [12]: 6.32 µM (active) | AC50 [10]: 1.68 µM (active)
